Experiments:
Type in all cases: in vivo
Settings in all cases: 21 days after application
Eleusine indica = experiment: Further glasshouse test versus other ACCase-inhibiting herbicides, Table B2-2
Source text: (§1) Further tests were employed to test the efficacy of a compound of Formula I versus other ACCase-inhibiting herbicides. The five main targets were Lolium multiflorum, Eleusine indica, Digitaria insularis, Sorghum halepense and Echinochloa crus-galli. Collectively, the populations contained all the major target-site resistance mutations affecting ACCase herbicides. Two L. multiflorum (LM-NTSR-1 and LM-NTSR-2) and one E. crus-galli (ECG-NTSR-1) populations were characterised exclusively by non-target-site resistance (“NTSR”). The target-site resistant L. multiflorum and E. indication populations were 100% homozygous for different ACCase mutations whilst the D. insularis, S. halepense and E. crus-galli samples contained a mixture of homozygous wild and mutant individuals at different genotypic frequencies. Additional underlying NTSR cannot be ruled out in the populations characterised by target-site resistance.
(§2) Around 50 seeds of each of the 24 weed populations were sown in 12-cm pots containing a mixture of peat and compost in a 1:1 ratio. The pots were watered, fertilised and kept in controlled glasshouse conditions set at 24° C./16 hr day, 18° C. night, 65% relative humidity, and a photon flux density of approximately 250 μmol quanta m^−2 s^−1 for Lolium multiflorum. The E. indica, D. insularis, S. halepense and E. crus-galli plants were kept in a separate glasshouse bay characterised by a 17 H photoperiod of 180 μmol m^−2 s^−1 with temperatures of 25° C. day and 19° C. night and 65% relative humidity. When the plants were at the two to four-leaf stage, they were treated with the various ACCase-inhibiting herbicides at 0, 15, 30, 60, 120 and 240 g ai ha^−1 in a spray cabinet mounted with a single mobile Teejet flat fan nozzle (11002VS) calibrated to deliver 200 L ha^−1 at 200 kPa. The L. multiflorum populations were treated by a compound of Formula Ic, clodinafop-propargyl, pinoxaden, cycloxydim and clethodim and the warm season grass weeds E. indica, D. insularis, S. halepense and E. crus-galli were sprayed with a Compound Ic and the commonly employed haloxyfop-methyl and clethodim. Three replicate pots were used per population. Plants were assessed for visual damage compared to the untreated control 21 days after application (0=0% damage; 100=100% damage).

Sorghum halepense = experiment: Further glasshouse test versus other ACCase-inhibiting herbicides, Table B2-4
Source text: as §1, §2

Digitaria insularis = experiment: Further glasshouse test versus other ACCase-inhibiting herbicides, Table B2-3
Source text: as §1, §2

Echinochloa Crus-galli = experiment: Further glasshouse test versus other ACCase-inhibiting herbicides, Table B2-5
Source text: as §1, §2

SMILES: COC(=O)C(C)Oc1ccc(Oc2ncc(C(F)(F)F)cc2Cl)cc1 (stereo not drawn) [Haloxyfop-p-methyl, haloxyfop-methyl]
- visual damage (Eleusine indica; biotype D2078G, 15 g/ha): 0%
- visual damage (Eleusine indica; biotype D2078G, 30 g/ha): 0%
- visual damage (Eleusine indica; biotype D2078G, 60 g/ha): 60%
- visual damage (Eleusine indica; biotype D2078G, 120 g/ha): 95%
- visual damage (Eleusine indica; biotype D2078G, 240 g/ha): 88%
- visual damage (Eleusine indica; biotype G2096A, 15 g/ha): 3%
- visual damage (Eleusine indica; biotype G2096A, 30 g/ha): 3%
- visual damage (Eleusine indica; biotype G2096A, 60 g/ha): 23%
- visual damage (Eleusine indica; biotype G2096A, 120 g/ha): 30%
- visual damage (Eleusine indica; biotype G2096A, 240 g/ha): 53%
- visual damage (Eleusine indica; biotype I2041N, 15 g/ha): 0%
- visual damage (Eleusine indica; biotype I2041N, 30 g/ha): 7%
- visual damage (Eleusine indica; biotype I2041N, 60 g/ha): 0%
- visual damage (Eleusine indica; biotype I2041N, 120 g/ha): 10%
- visual damage (Eleusine indica; biotype I2041N, 240 g/ha): 0%
- visual damage (Eleusine indica; biotype Sensitive, 15 g/ha): 100%
- visual damage (Eleusine indica; biotype Sensitive, 30 g/ha): 100%
- visual damage (Eleusine indica; biotype Sensitive, 60 g/ha): 100%
- visual damage (Eleusine indica; biotype Sensitive, 120 g/ha): 100%
- visual damage (Eleusine indica; biotype Sensitive, 240 g/ha): 100%
- visual damage (Eleusine indica; biotype W2027C, 15 g/ha): 0%
- visual damage (Eleusine indica; biotype W2027C, 30 g/ha): 0%
- visual damage (Eleusine indica; biotype W2027C, 60 g/ha): 17%
- visual damage (Eleusine indica; biotype W2027C, 120 g/ha): 30%
- visual damage (Eleusine indica; biotype W2027C, 240 g/ha): 33%
- visual damage (Sorghum halepense; biotype Sensitive, 15 g/ha): 93%
- visual damage (Sorghum halepense; biotype Sensitive, 30 g/ha): 100%
- visual damage (Sorghum halepense; biotype Sensitive, 60 g/ha): 100%
- visual damage (Sorghum halepense; biotype Sensitive, 120 g/ha): 100%
- visual damage (Sorghum halepense; biotype Sensitive, 240 g/ha): 100%
- visual damage (Sorghum halepense; biotype W2027C, 15 g/ha): 38%
- visual damage (Sorghum halepense; biotype W2027C, 30 g/ha): 50%
- visual damage (Sorghum halepense; biotype W2027C, 60 g/ha): 68%
- visual damage (Sorghum halepense; biotype W2027C, 120 g/ha): 68%
- visual damage (Sorghum halepense; biotype W2027C, 240 g/ha): 78%
- visual damage (Digitaria insularis; biotype Sensitive, 15 g/ha): 100%
- visual damage (Digitaria insularis; biotype Sensitive, 30 g/ha): 100%
- visual damage (Digitaria insularis; biotype Sensitive, 60 g/ha): 100%
- visual damage (Digitaria insularis; biotype Sensitive, 120 g/ha): 100%
- visual damage (Digitaria insularis; biotype Sensitive, 240 g/ha): 100%
- visual damage (Digitaria insularis; biotype W2027C, 15 g/ha): 76%
- visual damage (Digitaria insularis; biotype W2027C, 30 g/ha): 53%
- visual damage (Digitaria insularis; biotype W2027C, 60 g/ha): 93%
- visual damage (Digitaria insularis; biotype W2027C, 120 g/ha): 100%
- visual damage (Digitaria insularis; biotype W2027C, 240 g/ha): 100%
- visual damage (Echinochloa Crus-galli; biotype Sensitive, 15 g/ha): 100%
- visual damage (Echinochloa Crus-galli; biotype Sensitive, 30 g/ha): 100%
- visual damage (Echinochloa Crus-galli; biotype Sensitive, 60 g/ha): 100%
- visual damage (Echinochloa Crus-galli; biotype Sensitive, 120 g/ha): 100%
- visual damage (Echinochloa Crus-galli; biotype Sensitive, 240 g/ha): 100%
- visual damage (Echinochloa Crus-galli; biotype W2027C, 15 g/ha): 3%
- visual damage (Echinochloa Crus-galli; biotype W2027C, 30 g/ha): 75%
- visual damage (Echinochloa Crus-galli; biotype W2027C, 60 g/ha): 73%
- visual damage (Echinochloa Crus-galli; biotype W2027C, 120 g/ha): 100%
- visual damage (Echinochloa Crus-galli; biotype W2027C, 240 g/ha): 100%
- visual damage (Echinochloa Crus-galli; population ECG-NTSR-1 (non-target-site resistance), 15 g/ha): 73%
- visual damage (Echinochloa Crus-galli; population ECG-NTSR-1 (non-target-site resistance), 30 g/ha): 87%
- visual damage (Echinochloa Crus-galli; population ECG-NTSR-1 (non-target-site resistance), 60 g/ha): 100%
- visual damage (Echinochloa Crus-galli; population ECG-NTSR-1 (non-target-site resistance), 120 g/ha): 100%
- visual damage (Echinochloa Crus-galli; population ECG-NTSR-1 (non-target-site resistance), 240 g/ha): 100%

From US20260215428A1, “WEED CONTROL METHOD” (SYNGENTA CROP PROTECTION AG, priority 2023, published 2026)
